In ChEMBL document CHEMBL1201862, “PubChem BioAssay data set” (2004):
“And” between values parts separate entries of the source, which are not always exact repeats. Identical values can stand only once.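 Tested at 5 concentrations; 48 h exposure; 96-well plates; endpoints linearly interpolated, else capped at highest concentration. Here, GI50 denotes the concentration required for 50% inhibition of growth.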 The source made the active and inactive calls. Cut-off read from the data, not from the text of the source: active = GI50 up to about 1.1 µM and inactive = higher.

Assays:
Experiment in all cases: DTP human tumour cell line panel, 48 h
K562 = system: K562
UACC-257 = system: UACC-257
A498 = system: A498
SNB-19 = system: SNB-19
HCT-15 = system: HCT-15
CAKI-1 = system: CAKI-1
HCC 2998 = system: HCC 2998
Hs-578T = system: Hs-578T
EKVX = system: EKVX
DU-145 = system: DU-145
ACHN = system: ACHN
MDA-N = system: MDA-N
786-0 = system: 786-0
OVCAR-4 = system: OVCAR-4
PC-3 = system: PC-3
U-251 = system: U-251
Malme-3M = system: Malme-3M
SW-620 = system: SW-620
MDA-MB-435 = system: MDA-MB-435
HL-60 = system: HL-60
HCT-116 = system: HCT-116
RXF 393 = system: RXF 393
LOX IMVI = system: LOX IMVI
NCI-H522 = system: NCI-H522
SN12C = system: SN12C
MCF7 = system: MCF7
A549 = system: A549
UACC-62 = system: UACC-62
KM12 = system: KM12
SK-MEL-5 = system: SK-MEL-5
OVCAR-5 = system: OVCAR-5
OVCAR-3 = system: OVCAR-3
SF-295 = system: SF-295
BT-549 = system: BT-549
HT-29 = system: HT-29
UO-31 = system: UO-31
NCI-H23 = system: NCI-H23
NCI/ADR-RES = system: NCI/ADR-RES
SF-539 = system: SF-539
SK-MEL-28 = system: SK-MEL-28
MOLT-4 = system: MOLT-4
CCRF-CEM = system: CCRF-CEM
SF-268 = system: SF-268
NCI-H226 = system: NCI-H226
MDA-MB-231 = system: MDA-MB-231
TK-10 = system: TK-10
HOP-62 = system: HOP-62
IGROV-1 = system: IGROV-1
SK-OV-3 = system: SK-OV-3
NCI-H460 = system: NCI-H460
OVCAR-8 = system: OVCAR-8
SK-MEL-2 = system: SK-MEL-2
COLO 205 = system: COLO 205
SNB-75 = system: SNB-75
RPMI-8226 = system: RPMI-8226
SR = system: SR
M14 = system: M14
T47D = system: T47D
HOP-92 = system: HOP-92

## COc1ccc(-c2c(C(C)=O)c(-c3ccccc3)n(C3OC(COC(C)=O)C(OC(C)=O)C(OC(C)=O)C3OC(C)=O)c(=S)c2C#N)cc1O (stereo unspecified)
K562
  GI50: 47.9 µM (inactive) and 49.4 µM (inactive)
UACC-257
  GI50: 55.8 µM (inactive) and 34.9 µM (inactive)
A498
  GI50: > 100 µM (inactive)
SNB-19
  GI50: 71.4 µM (inactive)
HCT-15
  GI50: 42.3 µM and 28 µM
CAKI-1
  GI50: 62.8 µM (inactive) and 49.7 µM (inactive)
HCC 2998
  GI50: 24.1 µM (inactive) and 18.2 µM (inactive)
Hs-578T
  GI50: 47.6 µM (inactive) and 70.5 µM (inactive)
EKVX
  GI50: 25.9 µM (inactive) and 34.6 µM (inactive)
DU-145
  GI50: 37.8 µM (inactive) and 26.9 µM (inactive)
ACHN
  GI50: 40.8 µM (inactive) and 32.9 µM (inactive)
MDA-N
  GI50: 27.5 µM (inactive) and 33.5 µM (inactive)
786-0
  GI50: 36.5 µM (inactive) and 36.9 µM (inactive)
OVCAR-4
  GI50: 31.8 µM (inactive) and 24.7 µM (inactive)
PC-3
  GI50: 26.4 µM (inactive) and 41.4 µM (inactive)
U-251
  GI50: 91.8 µM (inactive) and 69.5 µM (inactive)
Malme-3M
  GI50: 18.5 µM (inactive) and 16.4 µM (inactive)
SW-620
  GI50: 93.8 µM (inactive) and 91.6 µM (inactive)
MDA-MB-435
  GI50: 39.1 µM (inactive) and 32 µM (inactive)
HL-60
  GI50: 7.1 µM (inactive)
HCT-116
  GI50: 21.8 µM (inactive) and 36.2 µM (inactive)
RXF 393
  GI50: 40.6 µM (inactive) and 42.1 µM (inactive)
LOX IMVI
  GI50: 34.6 µM (inactive) and 23.2 µM (inactive)
NCI-H522
  GI50: 17.6 µM (inactive) and 10.1 µM (inactive)
SN12C
  GI50: > 100 µM (inactive) and 52.1 µM (inactive)
MCF7
  GI50: 28.6 µM (inactive) and 36.1 µM (inactive)
A549
  GI50: 68.5 µM (inactive) and 44.9 µM (inactive)
UACC-62
  GI50: 38.7 µM (inactive) and 19.9 µM (inactive)
KM12
  GI50: 33.7 µM (inactive) and 19.1 µM (inactive)
SK-MEL-5
  GI50: 33.4 µM (inactive) and 30.1 µM (inactive)
OVCAR-5
  GI50: > 100 µM (inactive) and 66.7 µM (inactive)
OVCAR-3
  GI50: 29.4 µM (inactive) and 16.8 µM (inactive)
SF-295
  GI50: 64.4 µM (inactive) and 36.4 µM (inactive)
BT-549
  GI50: 33.7 µM (inactive)
HT-29
  GI50: 36.9 µM (inactive)
UO-31
  GI50: 56.9 µM (inactive) and 36.4 µM (inactive)
NCI-H23
  GI50: 35.4 µM (inactive) and 26 µM (inactive)
NCI/ADR-RES
  GI50: 38.3 µM (inactive)

## CC(=O)O[C@@H]1C2=C(C)C=C(O2)[C@H]2O[C@]2(C)C[C@H]2C=C(C(=O)O2)[C@H](OC(C)=O)CC1[C@@]1(C)CO1 (stereo partly specified)
K562
  GI50: 17 µM (inactive)
UACC-257
  GI50: 28.1 µM (inactive)
A498
  GI50: > 100 µM (inactive)
SNB-19
  GI50: > 100 µM (inactive)
HCT-15
  GI50: 22 µM
CAKI-1
  GI50: 24.2 µM (inactive)
HCC 2998
  GI50: > 100 µM (inactive)
EKVX
  GI50: 26.2 µM (inactive)
DU-145
  GI50: 31.3 µM (inactive)
ACHN
  GI50: 23.7 µM (inactive)
SF-539
  GI50: 29.5 µM (inactive)
MDA-N
  GI50: 30.3 µM (inactive)
SK-MEL-28
  GI50: 19.4 µM (inactive)
786-0
  GI50: 23.9 µM (inactive)
OVCAR-4
  GI50: 27.7 µM (inactive)
MOLT-4
  GI50: 9.64 µM (inactive)
PC-3
  GI50: 32.4 µM (inactive)
U-251
  GI50: 19.1 µM (inactive)
CCRF-CEM
  GI50: 8.59 µM (inactive)
SF-268
  GI50: 42 µM (inactive)
NCI-H226
  GI50: > 100 µM (inactive)
Malme-3M
  GI50: 17.5 µM (inactive)
MDA-MB-231
  GI50: 27.4 µM (inactive)
SW-620
  GI50: 12.8 µM (inactive)
TK-10
  GI50: 60.3 µM (inactive)
HOP-62
  GI50: 23 µM (inactive)
MDA-MB-435
  GI50: 23.5 µM (inactive)
IGROV-1
  GI50: 14.3 µM (inactive)
HCT-116
  GI50: 15.1 µM (inactive)
RXF 393
  GI50: 17.2 µM (inactive)
LOX IMVI
  GI50: 18.4 µM (inactive)
NCI-H522
  GI50: 3.23 µM (inactive)
SN12C
  GI50: 21.3 µM (inactive)
SK-OV-3
  GI50: > 100 µM (inactive)
MCF7
  GI50: 18 µM (inactive)
NCI-H460
  GI50: 37 µM (inactive)
A549
  GI50: 45.3 µM (inactive)
UACC-62
  GI50: 21.7 µM (inactive)
OVCAR-8
  GI50: 35.4 µM (inactive)
SK-MEL-2
  GI50: 56.1 µM (inactive)
COLO 205
  GI50: 14.1 µM (inactive)
KM12
  GI50: 36.6 µM (inactive)
SK-MEL-5
  GI50: 35.7 µM (inactive)
SNB-75
  GI50: 42.5 µM (inactive)
OVCAR-5
  GI50: 26.4 µM (inactive)
RPMI-8226
  GI50: 13.9 µM (inactive)
SF-295
  GI50: 36.1 µM (inactive)
BT-549
  GI50: 21.1 µM (inactive)
HT-29
  GI50: 25.4 µM (inactive)
UO-31
  GI50: 20.1 µM (inactive)
SR
  GI50: 18.7 µM (inactive)
M14
  GI50: 23.8 µM (inactive)
NCI-H23
  GI50: 28.9 µM (inactive)
NCI/ADR-RES
  GI50: 29.4 µM (inactive)
T47D
  GI50: 18.8 µM (inactive)

## C1=N\CCN2CCN(CC/N=C\c3ccccc3OCc3cccc(n3)COc3ccccc3/1)CC2
K562
  GI50: 2.48 µM (inactive)
UACC-257
  GI50: 10.5 µM (inactive)
A498
  GI50: 40.9 µM (inactive)
SNB-19
  GI50: 9.91 µM (inactive)
HCT-15
  GI50: 6.01 µM
Hs-578T
  GI50: 1.38 µM (inactive)
EKVX
  GI50: 13 µM (inactive)
DU-145
  GI50: 12.8 µM (inactive)
ACHN
  GI50: 9.71 µM (inactive)
SF-539
  GI50: 3 µM (inactive)
MDA-N
  GI50: 1.11 µM (active)
SK-MEL-28
  GI50: 13.8 µM (inactive)
786-0
  GI50: 5.13 µM (inactive)
OVCAR-4
  GI50: 6.15 µM (inactive)
MOLT-4
  GI50: 4.6 µM (inactive)
PC-3
  GI50: 9.46 µM (inactive)
U-251
  GI50: 2.26 µM (inactive)
CCRF-CEM
  GI50: 3.39 µM (inactive)
SF-268
  GI50: 2.15 µM (inactive)
Malme-3M
  GI50: 6.12 µM (inactive)
MDA-MB-231
  GI50: 16.4 µM (inactive)
SW-620
  GI50: 2.35 µM (inactive)
TK-10
  GI50: 8.3 µM (inactive)
HOP-62
  GI50: 14.6 µM (inactive)
MDA-MB-435
  GI50: 0.973 µM (active)
IGROV-1
  GI50: 11.2 µM (inactive)
HL-60
  GI50: 3.16 µM (inactive)
HCT-116
  GI50: 2.61 µM (inactive)
RXF 393
  GI50: 0.508 µM (active)
NCI-H522
  GI50: 24.2 µM (inactive)
SN12C
  GI50: 10.6 µM (inactive)
SK-OV-3
  GI50: 16.9 µM (inactive)
MCF7
  GI50: 1.52 µM (inactive)
NCI-H460
  GI50: 38.2 µM (inactive)
A549
  GI50: 44.6 µM (inactive)
UACC-62
  GI50: 1.73 µM (inactive)
OVCAR-8
  GI50: 11.8 µM (inactive)
SK-MEL-2
  GI50: 20.6 µM (inactive)
COLO 205
  GI50: 19.6 µM (inactive)
KM12
  GI50: 8.83 µM (inactive)
SNB-75
  GI50: 9.66 µM (inactive)
OVCAR-5
  GI50: 9.18 µM (inactive)
RPMI-8226
  GI50: 2.48 µM (inactive)
OVCAR-3
  GI50: 1.3 µM (inactive)
SF-295
  GI50: 3.62 µM (inactive)
BT-549
  GI50: 9.75 µM (inactive)
HT-29
  GI50: 8.2 µM (inactive)
UO-31
  GI50: 13.8 µM (inactive)
SR
  GI50: 1.71 µM (inactive)
M14
  GI50: 7.74 µM (inactive)
NCI-H23
  GI50: 14.6 µM (inactive)
HOP-92
  GI50: 3.89 µM (inactive)
NCI/ADR-RES
  GI50: 2.28 µM (inactive)
